In patent US11447504B2, “Macrocyclic chlorine substituted indole derivatives” (Bayer Aktiengesellschaft, priority 2017, dated 2022):
Structures can show the parent of a compound that is named as a salt. Where two headings read alike, the source gives them in different places.

Experiments:
[1] = tested on: SUDHL5; assay: Induction of caspase-3/7 activity (Assay 4), SUDHL5; type: cell-based; conditions: SUDHL5 cells
In short: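 DLBCL cells treated with compounds for 3 hours at 37° C. Caspase-3/7 activity measured by Caspase-Glo 3/7 luminescence, with medium-only background subtracted.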

[2] = tested on: SUDHL10; assay: Induction of caspase-3/7 activity (Assay 4), SUDHL10; type: cell-based; conditions: SUDHL10 cells
In short: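 Luminescent Caspase-Glo 3/7 read-out after a 3 h, 37 °C compound exposure of the DLBCL line SUDHL10. Values are background-corrected using medium-only wells.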

[3] = tested on: SUDHL5; assay: Antiproliferation assay 7, SUDHL5; type: cell-based; conditions: SUDHL5 cells, CellTiter-Glo, read-out: Antiproli SUDHL5 IC50 (median)
In short: (§1)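 Plate cells in treatment and day 0 reference plates; read day 0 plate with CellTiter-Glo after 10 min; incubate treated plates 72 h at 37° C; read them identically.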

[4] = tested on: MV-4-11; assay: Antiproliferation assay 7, MV-4-11; type: cell-based; conditions: MV-4-11 cells, CellTiter-Glo, read-out: Antiproli MV-4-11 IC50 median
Description: (§2) Assessment of the Anti-Proliferative Effect of Compounds in Different Cell Lines
(§3) The impact of compounds on the proliferation of different cell lines was assessed using the CellTiter-Glo® Luminescent Cell Viability reagent from Promega (G7573).
(§4) In parallel, cells were plated in a reference (day 0) plate for time zero determination.
(§5) Rim wells were excluded. The cells were incubated for 72 hours in a humidified incubator at 37° C. The day 0 plate was measured by adding 30 μL/well of CTG solution (CellTiter-Glo® Luminescent Cell Viability reagent, Promega G7573) to time zero wells in the reference plate followed by a 10 minutes incubation and luminescence reading at 0.1 ms. using the PHERAstar FS microplate reader (BMG Labtech).
(§6) After 72 hours incubation, the treated plates were measured in the same way as the day 0 plate mentioned above.

[5] = tested on: AMO-1; assay: Antiproliferation assay 7, AMO-1; type: cell-based; conditions: AMO-1 cells, CellTiter-Glo, read-out: Antiproli AMO-1 IC50 median
In short: as §1

[6] = tested on: HMC-1-8; assay: Antiproliferation assay 7, HMC-1-8; type: cell-based; conditions: 72 h, HMC-1-8 cells, CellTiter-Glo, read-out: Antiproli HMC-1-8 IC50 median
Description: as §2, §3, §4, §5, §6

[7] = tested on: SUDHL5; assay: Induction of cytotoxicity (Assay 6), SUDHL5
[8] = tested on: SUDHL10; assay: Induction of cytotoxicity (Assay 6), SUDHL10
[9] = 3 hours, Caspase-Glo 3/7, read-out: Caspase SUDHL5 EC50 (median)
[10] = 3 hours, Caspase-Glo 3/7, read-out: Caspase SUDHL10 EC50 (median)
[11] = read-out: Cytotox SUDHL5 IC50 (median), SUDHL5 cells, 5 hours, CellTiter-Glo
[12] = read-out: Cytotox SUDHL10 IC50 (median), SUDHL10 cells, 5 hours, CellTiter-Glo

Row | Structure (SMILES) | EC50 [1, 9] | EC50 [2, 10] | IC50 ([3]; 72 hours) | IC50 ([4]; 72 hours) | IC50 ([5]; 72 hours) | IC50 [6] | IC50 [7, 11] | IC50 [8, 12] | EC50 ([1]; Homo sapiens, SU-DHL-5, 3 h, Caspase-Glo 3/7, read-out: Caspase SUDHL5 EC50 (median)) | EC50 ([2]; Homo sapiens, SU-DHL10, 3 h, Caspase-Glo 3/7, read-out: Caspase SUDHL10 EC50 (median)) | IC50 ([3]; Homo sapiens, SU-DHL-5, 72 h) | IC50 ([4]; Homo sapiens, MV4-11, 72 h) | IC50 ([5]; Homo sapiens, AMO1, 72 h) | IC50 ([7]; Homo sapiens, SU-DHL-5, 5 h, read-out: Cytotox SUDHL5 IC50 (median), SUDHL5 cells, 5 hours, CellTiter-Glo) | IC50 ([8]; Homo sapiens, SU-DHL10, 5 h, read-out: Cytotox SUDHL10 IC50 (median), SUDHL10 cells, 5 hours, CellTiter-Glo)
1 | CCc1c2c(nn1C)CN(C)CCCCn1c(C(=O)O)c(CCCOc3cccc4cc(F)ccc34)c3ccc(Cl)c-2c31 (single isomer, unassigned; enantiomer 1) [Example 6, 4-chloro-3-ethyl-7-{3-[(6-fluoronaphthalen-1-yl)oxy]propyl}-2,14-dimethyl-10,11,12,13,14,15-hexahydro-2H-pyrazolo[3′,4′:8,9][1,6]diazacycloundecino[10,11,1-hi]indole-8-carboxylic Acid (Enantiomer 1)] | 0.13 µM | 0.34 µM | 0.23 µM | 0.0794 µM | 0.369 µM | 1.21 µM | 0.19 µM | 0.35 µM | – | – | – | – | – | – | –
2 | Cc1c2c(nn1C)COCCCCn1c(C(=O)O)c(CCCOc3cccc4cc(F)ccc34)c3ccc(Cl)c-2c31 (single isomer, unassigned; enantiomer 1) [Example 16, (−)-4-chloro-7-{3-[(6-fluoronaphthalen-1-yl)oxy]propyl}-2,3-dimethyl-2,10,11,12,13,15-hexahydropyrazolo[4′,3′:9,10][1,6]oxazacycloundecino[8,7,6-hi]indole-8-carboxylic Acid (Enantiomer 1)] | – | – | – | – | – | 1.25 µM | – | – | 0.15 µM | 0.38 µM | 0.21 µM | 0.524 µM | 0.519 µM | 0.22 µM | 0.66 µM
3 | CCc1c2c(nn1C)CN(C)CCCCn1c(C(=O)O)c(CCCOc3cccc4ccccc34)c3ccc(Cl)c-2c31 (single isomer, unassigned; enantiomer 1) [Example 23, 4-chloro-3-ethyl-2,14-dimethyl-7-[3-(naphthalen-1-yloxy)propyl]-10,11,12,13,14,15-hexahydro-2H-pyrazolo[3′,4′:8,9][1,6]diazacycloundecino[10,11,1-hi]indole-8-carboxylic Acid (Enantiomer 1)] | 0.092 µM | – | – | 0.387 µM | – | 5.16 µM | 0.14 µM | 0.31 µM | – | – | – | – | 0.613 µM | – | –

More lines, main results first:

Row | EC50 [1, 9] | EC50 [2, 10] | IC50 ([3]; 72 hours) | IC50 ([4]; 72 hours) | Structure (SMILES) | IC50 ([5]; 72 hours) | IC50 [6] | IC50 [7, 11] | IC50 [8, 12] | EC50 ([1]; Homo sapiens, SU-DHL-5, 3 h, Caspase-Glo 3/7, read-out: Caspase SUDHL5 EC50 (median)) | EC50 ([2]; Homo sapiens, SU-DHL10, 3 h, Caspase-Glo 3/7, read-out: Caspase SUDHL10 EC50 (median)) | IC50 ([3]; Homo sapiens, SU-DHL-5, 72 h) | IC50 ([4]; Homo sapiens, MV4-11, 72 h) | IC50 ([5]; Homo sapiens, AMO1, 72 h) | IC50 ([7]; Homo sapiens, SU-DHL-5, 5 h, read-out: Cytotox SUDHL5 IC50 (median), SUDHL5 cells, 5 hours, CellTiter-Glo) | IC50 ([8]; Homo sapiens, SU-DHL10, 5 h, read-out: Cytotox SUDHL10 IC50 (median), SUDHL10 cells, 5 hours, CellTiter-Glo)
4 | 0.38 µM | – | 0.62 µM | 1.26 µM | CCc1nn(C)c2c1-c1c(Cl)ccc3c(CCCOc4cccc5cc(F)ccc45)c(C(=O)O)n(c13)CCCCOC2 (single isomer, unassigned; enantiomer 1) [Example 34, (+)-4-chloro-3-ethyl-7-{3-[(6-fluoronaphthalen-1-yl)oxy]propyl}-1-methyl-1,10,11,12,13,15-hexahydropyrazolo[4′,3′:9,10][1,6]oxazacycloundecino[8,7,6-hi]indole-8-carboxylic Acid (Enantiomer 1)] | 1.41 µM | 2.03 µM | 0.53 µM | – | – | – | – | – | – | – | –
5 | 0.17 µM | – | 0.28 µM | 0.377 µM | CCc1c2c(nn1C)COCCCCn1c(C(=O)O)c(CCCOc3cccc4cc(F)ccc34)c3ccc(Cl)c-2c31 (single isomer, unassigned; enantiomer 1) [Example 37, (+)-4-chloro-3-ethyl-7-{3-[(6-fluoronaphthalen-1-yl)oxy]propyl}-2-methyl-2,10,11,12,13,15-hexahydropyrazolo[4′,3′:9,10][1,6]oxazacycloundecino[8,7,6-hi]indole-8-carboxylic acid-N-ethylethanamine Salt (Enantiomer 1)] | 0.363 µM | 1.13 µM | 0.2 µM | – | – | – | – | – | – | – | –
6 | 0.14 µM | 0.31 µM | 0.15 µM | 0.0955 µM | CCc1nn(C)c2c1-c1c(Cl)ccc3c(CCCOc4cccc5cc(F)ccc45)c(C(=O)O)n(c13)CCCCN(C)C2 (single isomer, unassigned; enantiomer 1) [Example 40, 4-chloro-3-ethyl-7-{3-[(6-fluoronaphthalen-1-yl)oxy]propyl}-1,14-dimethyl-10,11,12,13,14,15-hexahydro-1H-pyrazolo[3′,4′:8,9][1,6]diazacycloundecino[10,11,1-hi]indole-8-carboxylic Acid (Enantiomer 1)] | 0.539 µM | 0.695 µM | 0.11 µM | 0.29 µM | – | – | – | – | – | – | –
